Laboratory results as given in patent US12492202B2, “Macrocyclic PAD4 inhibitors useful as immunosuppressant” (BRISTOL-MYERS SQUIBB COMPANY, priority 2020, dated 2025).

Biological target: human PAD4 (hPAD4) (Homo sapiens (Human), UniProt Q9UM07)
Test: RFMS Human PAD4 Functional Assay
Assay type: biochemical
Details: rapid-fire mass spectrum (RFMS) assay; 5 nM hPAD4 enzyme, 250 μM BAEE, 30 min preincubation at 37° C.

human PAD4 (hPAD4), sequence (Q9UM07 whole entry): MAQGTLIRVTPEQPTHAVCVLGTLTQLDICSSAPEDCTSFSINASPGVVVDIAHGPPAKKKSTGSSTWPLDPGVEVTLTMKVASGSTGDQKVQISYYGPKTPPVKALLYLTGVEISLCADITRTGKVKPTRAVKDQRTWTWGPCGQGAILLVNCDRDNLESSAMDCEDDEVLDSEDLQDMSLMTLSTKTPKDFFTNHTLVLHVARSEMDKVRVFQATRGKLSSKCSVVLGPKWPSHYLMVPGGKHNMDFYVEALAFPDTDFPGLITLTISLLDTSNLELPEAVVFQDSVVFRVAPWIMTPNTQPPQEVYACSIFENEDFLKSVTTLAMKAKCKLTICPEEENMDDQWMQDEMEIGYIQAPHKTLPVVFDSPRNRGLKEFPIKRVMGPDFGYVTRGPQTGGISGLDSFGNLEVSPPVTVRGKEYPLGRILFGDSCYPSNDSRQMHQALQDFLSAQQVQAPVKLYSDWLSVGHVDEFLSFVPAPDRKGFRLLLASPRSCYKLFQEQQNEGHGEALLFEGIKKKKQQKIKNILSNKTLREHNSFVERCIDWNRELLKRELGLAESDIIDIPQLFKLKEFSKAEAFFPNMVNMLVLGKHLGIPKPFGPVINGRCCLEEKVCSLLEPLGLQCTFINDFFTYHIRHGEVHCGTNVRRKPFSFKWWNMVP

Row | IC50 | Structure (SMILES)
1 | 66 nM | COc1cc(C(=O)N2C[C@H](N)C[C@@H](F)C2)cc2nc3n(c12)Cc1cnn(c1)CCCCCCn1c-3cc2ccccc21 [Example 13, ((3R,5R)-3-amino-5-fluoropiperidin-1-yl)((E)-2^7-methoxy-1^1H,2^1H,4^1H-2(2,1)-benzo[d]imidazola-1(2,1)-indola-4(3,1)-pyrazolacyclodecaphane-2^5-yl) methanone]
2 | 11 nM | COc1cc(C(=O)N2CC3CCC2[C@@H]3N)cc2nc3n(c12)Cc1cnn(c1)-c1ccccc1OCCCn1c-3cc2ccccc21 (stereo partly drawn) [Example 14, ((7R)-7-amino-2-azabicyclo[2.2.1]heptan-2-yl)((Z)-2^7-methoxy-1^1H,2^1H,4^1H-6-oxa-2(2,1)-benzo[d]imidazola-1(2,1)-indola-4(4,1)-pyrazola-5(1,2)-benzenacyclononaphane-2^5-yl) methanone]
3 | 40 nM | COc1cc(C(=O)N2C[C@H](N)C[C@@H](F)C2)cc2nc3n(c12)Cc1cnn(c1)-c1ccccc1OCCCn1c-3cc2cccnc21 [Example 15, ((3R,5R)-3-amino-5-fluoropiperidin-1-yl)((Z)-2^7-methoxy-1^1H,2^1H,4^1H-6-oxa-1,2(2,1)-dipyrrolo[2,3-b]pyridina-4(4,1)-pyrazola-5(1,2)-benzenacyclononaphane-2^5-yl)methanone]
4 | 15 nM | COc1cc(C(=O)N2CC3CCC2[C@@H]3N)cc2nc3n(c12)Cc1cnn(c1)-c1ccccc1OCCCn1c-3cc2cccnc21 (stereo partly drawn) [Example 16, ((7R)-7-amino-2-azabicyclo[2.2.1]heptan-2-yl)((Z)-2^7-methoxy-1^1H,2^1H,4^1H-6-oxa-1,2(2,1)-dipyrrolo[2,3-b]pyridina-4(4,1)-pyrazola-5(1,2)-benzenacyclononaphane-2^5-yl)methanone]
5 | 11 nM | COc1cc(C(=O)N2CC3CCC2[C@@H]3N)cc2nc3n(c12)Cc1ccn(n1)-c1ccccc1OCCCn1c-3cc2cccnc21 (stereo partly drawn) [Example 17, ((7R)-7-amino-2-azabicyclo[2.2.1]heptan-2-yl)((E)-2^7-methoxy-1^1H,2^1H,4^1H-6-oxa-1,2(2,1)-dipyrrolo[2,3-b]pyridina-4(3,1)-pyrazola-5(1,2)-benzenacyclononaphane-2^5-yl) methanone]
6 | 9 nM | COc1cc(C(=O)N2C[C@H](N)C[C@@H](F)C2)cc2nc3n(c12)Cc1ccn(n1)-c1ccccc1OCCCn1c-3cc2cccnc21 [Example 18, ((3R,5R)-3-amino-5-fluoropiperidin-1-yl)((E)-2^7-methoxy-1^1H,2^1H,4^1H-6-oxa-1,2(2,1)-dipyrrolo[2,3-b]pyridina-4(3,1)-pyrazola-5(1,2)-benzenacyclononaphane-2^5-yl)methanone]
7 | 5 nM | COc1cc(C(=O)N2CC3CCC2[C@@H]3N)cc2nc3n(c12)Cc1ccn(n1)-c1ccccc1OCCCn1c-3cc2ccccc21 (stereo partly drawn) [Example 19, ((7R)-7-amino-2-azabicyclo[2.2.1]heptan-2-yl)((E)-2^7-methoxy-1^1H,2^1H,4^1H-6-oxa-2(2,1)-benzo[d]imidazola-1(2,1)-indola-4(3,1)-pyrazola-5(1,2)-benzenacyclononaphane-2^5-yl)methanone]
8 | 13 nM | COc1cc(C(=O)N2C[C@H](N)C[C@@H](F)C2)cc2nc3n(c12)Cc1ccn(n1)-c1ccccc1OCCCn1c-3cc2ccccc21 [Example 20, ((3R,5R)-3-amino-5-fluoropiperidin-1-yl)((E)-2^7-methoxy-1^1H,2^1H,4^1H-6-oxa-2(2,1)-benzo[d]imidazola-l(2,1)-indola-4(3,1)-pyrazola-5(1,2)-benzenacyclononaphane-2^5-yl)methanone]
9 | 191 nM | COc1cc(C(=O)N2C[C@H](N)C[C@@H](F)C2)cc2nc3n(c12)Cc1cccc(c1)-c1ccccc1CCCCn1c-3cc2ccccc21 [Example 21, ((3R,5R)-3-amino-5-fluoropiperidin-1l-yl)(2^7-methoxy-1^1IH,2^1H-2(2,1)-benzo[d]imidazola-1(2,1)-indola-4(1,3),5(1,2)-dibenzenacyclononaphane-2^5-yl)methanone]
10 | 53 nM | COc1cc(C(=O)N2CC3CCC2[C@@H]3N)cc2nc3n(c12)Cc1cccc(c1)-c1ccccc1CCCCn1c-3cc2ccccc21 (stereo partly drawn) [Example 22, ((1R,4R,7R)-7-amino-2-azabicyclo[2.2.1]heptan-2-yl)(2^7-methoxy-1^1H,2^1H-2(2,1)-benzo[d]imidazola-1(2,1)-indola-4(1,3),5(1,2)-dibenzenacyclononaphane-2^5-yl)methanone]
11 | 109 nM | COc1cc(C(=O)N2C[C@H](N)C[C@@H](F)C2)cc2nc3n(c12)Cc1cccc(c1)-c1ccccc1CCCCn1c-3cc2cccnc21 [Example 23, ((3R,5R)-3-amino-5-fluoropiperidin-1-yl)(2^7-methoxy-1^1H,2^1H,2(2,1)-dipyrrolo[2,3-b]pyridina-4(1,3),5(1,2)-dibenzenacyclononaphane-2^5-yl)methanone]
12 | 31 nM | COc1cc(C(=O)N2C[C@H](N)C[C@@H](F)C2)cc2nc3n(c12)Cc1cc(F)cc(c1)-c1ccccc1CCCCn1c-3cc2cccnc21 [Example 25, ((3R,5R)-3-amino-5-fluoropiperidin-1-yl)(4^5-fluoro-2^7-methoxy-1^1H,2^1H-1,2(2,1)-dipyrrolo[2,3-b]pyridina-4(1,3),5(1,2)-dibenzenacyclononaphane-2^5-yl)methanone]
13 | 21 nM | COc1cc(C(=O)N2C[C@H](N)C[C@@H](F)C2)cc2nc3n(c12)Cc1cc(C#N)cc(c1)-c1ccccc1CCCCn1c-3cc2cccnc21 [Example 26, 2^5-((3R,5R)-3-amino-5-fluoropiperidine-1 carbonyl)-2^7-methoxy-1^1H,2^1H-1,2(2,1)-dipyrrolo[2,3-b]pyridina-4(1,3),5(1,2)-dibenzenacyclononaphane-4^5-carbonitrile]
14 | 49 nM | COc1cc(C(=O)N2CC3CCC2[C@@H]3N)cc2nc3n(c12)Cc1cc(C#N)cc(c1)-c1ccccc1CCCCn1c-3cc2cccnc21 (stereo partly drawn) [Example 27, 2^5-((1R,4R,7R)-7-amino-2-azabicyclo[2.2.1]heptane-2-carbonyl)-2^7-methoxy-1^1H,2^1H-1,2(2,1)-dipyrrolo[2,3-b]pyridina-4(1,3),5(1,2)-dibenzenacyclononaphane-4^5-carbonitrile]
15 | 62 nM | COc1cc(C(=O)N2C[C@H](N)C[C@@H](F)C2)cc2nc3n(c12)Cc1cc(C(N)=O)cc(c1)-c1ccccc1CCCCn1c-3cc2cccnc21 [Example 28, 2^5-((3R,5R)-3-amino-5-fluoropiperidine-1-carbonyl)-2^7-methoxy-1^1H,2^1H-1,2(2,1)-dipyrrolo[2,3-b]pyridina-4(1,3),5(1,2)-dibenzenacyclononaphane-4^5-carboxamide]
16 | 59 nM | COc1cc(C(=O)N2CC3CCC2[C@@H]3N)cc2nc3n(c12)Cc1cc(C(N)=O)cc(c1)-c1ccccc1CCCCn1c-3cc2cccnc21 (stereo partly drawn) [Example 29, 2^5-((1R,4R,7R)-7-amino-2-azabicyclo[2.2.1]heptane-2-carbonyl)-2^7-methoxy-1^1H,2^1H-1,2(2,1)-dipyrrolo[2,3-b]pyridina-4(1,3),5(1,2)-dibenzenacyclononaphane-4^5-carboxamide]
17 | 4 nM | COc1cc(C(=O)N2C[C@H](N)C[C@@H](F)C2)cc2nc3n(c12)Cc1cncc(c1)-c1ccccc1CCCCn1c-3cc2cccnc21 [Example 30, ((3R,5R)-3-amino-5-fluoropiperidin-1-yl)(2^7-methoxy-1^1H, 2^1H-1,2(2,1)-dipyrrolo[2,3-b]pyridina-4(3,5)-pyridina-5(1,2)-benzenacyclononaphane-2^5-yl)methanone]
18 | 10 nM | COc1cc(C(=O)N2CC3CCC2[C@@H]3N)cc2nc3n(c12)Cc1cncc(c1)-c1ccccc1CCCCn1c-3cc2cccnc21 (stereo partly drawn) [Example 31, ((1R,4R,7R)-7-amino-2-azabicyclo[2.2.1]heptan-2-yl)(2^7-methoxy-1^1H,2^1H-1,2(2,1)-dipyrrolo[2,3-b]pyridina-4(3,5)-pyridina-5(1,2)-benzenacyclononaphane-2^5-yl)methanone]
19 | 112 nM | COc1cc(C(=O)N2CC3CCC2[C@@H]3N)cc2nc3n(c12)Cc1cc(ccn1)-c1ccccc1CCCCn1c-3cc2cccnc21 (stereo partly drawn) [Example 32, ((1R,4R,7R)-7-amino-2-azabicyclo[2.2.1]heptan-2-yl)(2^7-methoxy-1^1H,2^1H-1,2(2,1)-dipyrrolo[2,3-b]pyridina-4(2,4)-pyridina-5(1,2)-benzenacyclononaphane-2^5-yl)methanone]
20 | 120 nM | COc1cc(C(=O)N2C[C@H](N)C[C@@H](F)C2)cc2nc3n(c12)Cc1cccc(c1)-c1ccccc1OCCCn1c-3cc2cccnc21 [Example 33, ((3R,5R)-3-amino-5-fluoropiperidin-1-yl)(2^7-methoxy-1^1H,2^1H-6-oxa-1,2(2,1)-dipyrrolo[2,3-b]pyridina-4(1,3),5(1,2)-dibenzenacyclononaphane-2^5-yl)methanone]
21 | 30 nM | COc1cc(C(=O)N2CC3CCC2[C@@H]3N)cc2nc3n(c12)Cc1cccc(c1)-c1ccccc1OCCCn1c-3cc2cccnc21 (stereo partly drawn) [Example 34, ((1R,4R,7R)-7-amino-2-azabicyclo[2.2.1]heptan-2-yl)(2^7-methoxy-1^1H,2^1H-6-oxa-1,2(2,1)-dipyrrolo[2,3-b]pyridina-4(1,3),5(1,2)-dibenzenacyclononaphane-2^5-yl)methanone]
22 | 14 nM | COc1cc(C(=O)N2C[C@H](N)C[C@@H](F)C2)cc2nc3n(c12)Cc1cncc(c1)-c1ccccc1OCCCn1c-3cc2cccnc21 [Example 35, ((3R,5R)-3-amino-5-fluoropiperidin-1-yl)(2^7-methoxy-1^1H,2^1H-6-oxa-1,2(2,1)-dipyrrolo[2,3-b]pyridina-4(3,5)-pyridina-5(1,2)-benzenacyclononaphane-2^5-yl)methanone]
23 | 7 nM | COc1cc(C(=O)N2CC3CCC2[C@@H]3N)cc2nc3n(c12)Cc1cncc(c1)-c1ccccc1OCCCn1c-3cc2cccnc21 (stereo partly drawn) [Example 36, ((1R,4R,7R)-7-amino-2-azabicyclo[2.2.1]heptan-2-yl)(2^7-methoxy-1^1H,2^1H-6-oxa-1,2(2,1)-dipyrrolo[2,3-b]pyridina-4(3,5)-pyridina-5(1,2)-benzenacyclononaphane-2^5-yl)methanone]
